For orientation: Kd means the concentration at which binding is half-saturated. The EC50 is the concentration giving half of the maximal effect.

Structures are written as SMILES. Where two headings read alike, the source gives them in different places. Bridge positions count the residues as written; N and C are the ends. Square brackets hold non-standard residues; d marks the D form. Peptide text beside a SMILES is read from it. R8 = C=CCCCCCC[C@@](C)(N)C(=O)O; Cba = N[C@@H](CC1CCC1)C(=O)O; S5 = C=CCCC[C@](C)(N)C(=O)O Some results are limits rather than exact numbers.

From PMC6632053, “Incorporation of Putative Helix-Breaking Amino Acids in the Design of Novel Stapled Peptides: Exploring Biophysical and Cellular Permeability Properties” (Molecules, 2019) come the findings set out here.

The target of series [1] is T1, human Mdm2 1–125 (Homo sapiens, UniProt Q00987).
T1 construct: GST (N); His6 (internal); TEV cleavage site ENLYFQG (internal); made in house; host or cells: Escherichia coli BL21 (DE3) Rosetta T1R
T1 sequence (Q00987 with tags, fused parts or gaps): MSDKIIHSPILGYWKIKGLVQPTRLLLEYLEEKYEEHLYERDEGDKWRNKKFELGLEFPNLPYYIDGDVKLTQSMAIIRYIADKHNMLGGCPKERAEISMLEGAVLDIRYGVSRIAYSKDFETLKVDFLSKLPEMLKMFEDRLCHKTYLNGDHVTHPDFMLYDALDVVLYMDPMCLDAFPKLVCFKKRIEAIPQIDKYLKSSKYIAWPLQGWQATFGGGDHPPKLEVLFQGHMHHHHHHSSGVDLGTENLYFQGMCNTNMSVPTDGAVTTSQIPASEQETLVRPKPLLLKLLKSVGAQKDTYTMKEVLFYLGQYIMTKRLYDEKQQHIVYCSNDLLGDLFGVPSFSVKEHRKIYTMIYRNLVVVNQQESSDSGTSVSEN
As to the kind of experiment: Mdm2 binding assay (competitive fluorescence anisotropy/polarization). The settings on record: competitive fluorescence polarization, read-out: Mdm2 (nM), Mdm2 binding (Kd). Here is the method: The TEV (tobacco etch virus) cleavage site was changed from ENLYFQS to ENLYFQG to give a fusion protein with the following sequence:
Titrations were carried out with the concentration of Mdm2 held constant at 250 nM and the labeled peptide at 50 nM. The competing molecules were then titrated against the complex of the FAM-labeled peptide and protein. Apparent Kd values were determined by fitting the experimental data to the equations shown below:(2) r=r0+(rb−r0)×2(d^2−3e)cos(θ/3)−9/3Kd1+2(d^2−3e)cos(θ/3)−dd=Kd1+Kd2+[L]st+[L]t−[P]te=([L]t−[P]t)Kd1+([L]st−[P]t)Kd2+Kd1Kd2f=−Kd1Kd2[P]tθ=arcos[−2d^3+9de−27f/2(d^2−3e)^3] where [L]st and [L]t denote labeled ligand and total unlabeled ligand input concentrations, respectively. Kd2 is the dissociation constant of the interaction between the unlabeled ligand and the protein. In all competition experiments, it was assumed that [P]t > [L]st, otherwise considerable amounts of free labeled ligand would always be present and would interfere with measurements. Kd1 is the apparent Kd for the labeled peptide used and was experimentally determined as described in the previous paragraph. The FAM-labeled peptide was dissolved in dimethyl sulfoxide (DMSO) at 1 mM and diluted into the experimental buffer. Readings were carried out with an Envision Multilabel Reader (PerkinElmer). Experiments were carried out in PBS (2.7 mM KCl, 137mM NaCl, 10 mM Na2HPO4, and 2 mM KH2PO4 (pH 7.4)) and 0.1% Tween 20 buffer. All titrations were carried out in triplicate. Curve-fitting was carried out using Prism 4.0 (GraphPad). […] Negative control titrations of the ligands under investigation were also carried out with the fluorescently labeled peptide (in the absence of Mdm2) to ensure no interactions were occurring between the ligands and the FAM-labeled peptide.
(In fluorescence polarisation assays a small probe gives low polarisation when free and higher when bound to something large.)

Series [2] in a line: Circular dichroism (CD) α-helicity. Format: physicochemical. The settings on record: CD of free peptide, 25 °C, 1 mM Hepes pH 7.4, 5% methanol. The procedure:
A total of 5 µL of the 10 mM stock peptide was mixed with 45 µL of 100% methanol, and dried for 2 h in the SpeedVac concentrator (Thermo Scientific). The dried peptide was reconstituted in a buffer (1 mM Hepes pH 7.4 and 5% methanol) to a concentration of 1 mM. The peptide sample was placed in a quartz cuvette with a path length of 0.2 cm. The peptide concentration was determined by the absorbance of the peptide at […]. The CD spectrum was recorded from 300 to 190 nm using the Chirascan-plus qCD machine (Applied Photophysics, Surrey, UK), at 25 °C. All experiments were done in duplicates. The CD spectrum was converted to mean residue ellipticity, before deconvolution and estimation of the secondary structure components of the peptide using the CDNN software (distributed by Applied Photophysics).
For orientation: Circular dichroism is the unequal absorption of left and right circularly polarised light.

Series [3] concerns p53 responsive β-lactamase reporter in HCT116 cells. In words: p53 beta-lactamase reporter gene cellular functional assay. Format: cell-based. The settings on record: p53 reporter assay, HCT116, read-out: Cellular (µM), cellular activity (EC50). Here is the method:
HCT116 cells were stably transfected with a p53 responsive β-lactamase reporter and were seeded into a 384-well plate at a density of 8000 cells per well. Cells were maintained in McCoy’s 5A Medium with 10% fetal bovine serum (FBS), Blasticidin, and Penicillin/Streptomycin. The cells were incubated overnight, followed by removal of cell growth media and replacement with Opti-MEM either containing 0% FBS or 10% FBS. […] The final working concentration of DMSO was 0.5%. β-lactamase activity was detected using the ToxBLAzer Dual Screen (Invitrogen), as per the manufacturer’s instructions. Measurements were made using the Envision multiplate reader (Perkin–Elmer).
On the technique in general: A reporter such as luciferase makes a cellular process visible.

Take `CC(=O)N[C@@H](CC(C)C)C(=O)N[C@H](C(=O)N[C@@H](Cc1ccccc1)C(=O)NC(C)(C)C(=O)N[C@@H](CCC(=O)O)C(=O)N[C@@H](Cc1ccc(O)cc1)C(=O)N[C@@H](Cc1c[nH]c2ccccc12)C(=O)N[C@@H](CCC(N)=O)C(=O)N[C@H](CC(C)C)C(=O)N[C@@H](CC1CCC1)C(=O)NC(C)(C)C(=O)N[C@@H](CO)C(=O)N[C@@H](C)C(=O)N[C@@H](C)C(N)=O)[C@@H](C)O` [Linear L9(D-Leu)]: the Kd in series [1] (Table 1) is 88 nM. Moreover, the “Helicity (%)” value in series [2] (Table 1) was 19.7%. The EC50 in series [3] (Table 1) is above 50 µM.
For `CC(=O)N[C@@H](CC(C)C)C(=O)N[C@H](C(=O)N[C@H](Cc1ccccc1)C(=O)N[C@]1(C)CCCCCCC=CCCC[C@@](C)(C(=O)N[C@@H](CO)C(=O)N[C@@H](C)C(=O)N[C@@H](C)C(N)=O)NC(=O)[C@H](CC2CCC2)NC(=O)[C@H](CC(C)C)NC(=O)[C@H](CCC(N)=O)NC(=O)[C@H](Cc2c[nH]c3ccccc23)NC(=O)[C@H](Cc2ccc(O)cc2)NC(=O)[C@H](CCC(=O)O)NC1=O)[C@@H](C)O` [F3(D-Phe)], in that order: 6480 nM, 51.8% and above 50 µM.
For `CC(=O)N[C@@H](CC(C)C)C(=O)N[C@H](C(=O)N[C@@H](Cc1ccccc1)C(=O)N[C@]1(C)CCCCCCC=CCCC[C@@](C)(C(=O)N[C@@H](C)C(=O)N[C@@H](C)C(=O)N[C@@H](C)C(N)=O)NC(=O)[C@H](CC2CCC2)NC(=O)[C@H](CC(C)C)NC(=O)[C@H](CCC(N)=O)NC(=O)[C@H](Cc2c[nH]c3ccccc23)NC(=O)[C@H](Cc2ccc(O)cc2)NC(=O)[C@H](CCC(=O)O)NC1=O)[C@@H](C)O` [Peptide S12A] (Ac-LTF[R8]EYWQL[Cba][S5]AAA-NH2; staple 4-11) the same measures were 20.4 nM, 36.5% and 0.35 µM.
For `CC(=O)N[C@@H](CC(C)C)C(=O)N[C@@H](C(=O)N[C@@H](Cc1ccccc1)C(=O)N[C@]1(C)CCCCCCC=CCCC[C@@](C)(C(=O)N[C@@H](CO)C(=O)N[C@@H](C)C(=O)N[C@@H](C)C(N)=O)NC(=O)[C@H](CC2CCC2)NC(=O)[C@H](CC(C)C)NC(=O)[C@H](CCC(N)=O)NC(=O)[C@H](Cc2c[nH]c3ccccc23)NC(=O)[C@H](Cc2ccc(O)cc2)NC(=O)[C@H](CCC(=O)O)NC1=O)[C@H](C)O` [T2(D-Thr)], in that order: 136 nM, 40.7% and 3.4 µM.
With `CC(=O)N[C@@H](CC(C)C)C(=O)N[C@H](C(=O)N[C@@H](Cc1ccccc1)C(=O)N[C@]1(C)CCCCCCC=CCCC[C@@](C)(C(=O)N[C@@H](CO)C(=O)N[C@H](C)C(=O)N[C@@H](C)C(N)=O)NC(=O)[C@H](CC2CCC2)NC(=O)[C@H](CC(C)C)NC(=O)[C@H](CCC(N)=O)NC(=O)[C@H](Cc2c[nH]c3ccccc23)NC(=O)[C@H](Cc2ccc(O)cc2)NC(=O)[C@H](CCC(=O)O)NC1=O)[C@@H](C)O` [A13(D-Ala)], the Kd in series [1] (Table 1) was 17 nM. In series [2] (Table 1), the “Helicity (%)” value was determined as 41.8%. The EC50 in series [3] (Table 1) came out at 0.6 µM.
`CC(=O)N[C@@H](CC(C)C)C(=O)N[C@H](C(=O)N[C@@H](Cc1ccccc1)C(=O)N[C@]1(C)CCCCCCC=CCCC[C@@](C)(C(=O)N[C@@H](CO)C(=O)N[C@@H](C)C(=O)N[C@@H](C)C(N)=O)NC(=O)[C@H](CC2CCC2)NC(=O)[C@H](CC(C)C)NC(=O)[C@H](CCC(N)=O)NC(=O)[C@@H](Cc2c[nH]c3ccccc23)NC(=O)[C@H](Cc2ccc(O)cc2)NC(=O)[C@H](CCC(=O)O)NC1=O)[C@@H](C)O` [W6(D-Trp) (MP-384)]: the Kd in series [1] (Table 1) stood at 30 nM. Moreover, in series [2] (Table 1), the “Helicity (%)” value was found to be 41.0%. Besides, the EC50 in series [3] (Table 1) turned out to be 0.6 µM.
For `CC(=O)N[C@@H](CC(C)C)C(=O)N[C@H](C(=O)N[C@@H](Cc1ccccc1)C(=O)N[C@]1(C)CCCCCCC=CCCC[C@@](C)(C(=O)N[C@@H](CO)C(=O)N[C@@H](C)C(=O)N[C@@H](C)C(N)=O)NC(=O)[C@H](CC2CCC2)NC(=O)[C@H](C)NC(=O)[C@H](CCC(N)=O)NC(=O)[C@H](Cc2c[nH]c3ccccc23)NC(=O)[C@H](Cc2ccc(O)cc2)NC(=O)[C@H](CCC(=O)O)NC1=O)[C@@H](C)O` [Peptide L9A] (Ac-LTF[R8]EYWQA[Cba][S5]SAA-NH2; staple 4-11) the same measures were 12 nM, 48.7% and 0.16 µM.
With `CC(=O)N[C@@H](CCCCN=[N+]=[N-])C(=O)NCCC(=O)NCC(=O)N[C@H](C(=O)N[C@@H](Cc1ccccc1)C(=O)N[C@]1(C)CCCCCCC=CCCC[C@@](C)(C(=O)N[C@@H](CO)C(=O)N[C@@H](C)C(=O)N[C@@H](C)C(N)=O)NC(=O)[C@H](CC2CCC2)NC(=O)[C@H](CCC(N)=O)NC(=O)[C@H](C)NC(=O)[C@H](Cc2c[nH]c3ccccc23)NC(=O)[C@H](Cc2ccc(O)cc2)NC(=O)[C@H](CCC(=O)O)NC1=O)[C@@H](C)O` [Peptide L1G], the Kd in series [1] (Table 2) is 22.1 nM. Also, the “Helicity (%)” value in series [2] (Table 2) came to 44.6%. Also, the EC50 in series [3] (Table 2) worked out at 1.6 µM.
As for `CC(=O)N[C@@H](CC(C)C)C(=O)N[C@H](C(=O)N[C@@H](Cc1ccccc1)C(=O)NC(C)(C)C(=O)N[C@@H](CCC(=O)O)C(=O)N[C@@H](Cc1ccc(O)cc1)C(=O)N[C@@H](Cc1c[nH]c2ccccc12)C(=O)N[C@H](CCC(N)=O)C(=O)N[C@@H](CC(C)C)C(=O)N[C@@H](CC1CCC1)C(=O)NC(C)(C)C(=O)N[C@@H](CO)C(=O)N[C@@H](C)C(=O)N[C@@H](C)C(N)=O)[C@@H](C)O` [Linear Q8(D-Gln)], in series [1] (Table 1), the Kd came out at 119 nM. Besides, the “Helicity (%)” value in series [2] (Table 1) is given as 21.8%. Also, the EC50 in series [3] (Table 1) is above 50 µM.
On to `CC(=O)N[C@@H](CC(C)C)C(=O)N[C@H](C(=O)N[C@@H](Cc1ccccc1)C(=O)N[C@]1(C)CCCCCCC=CCCC[C@@](C)(C(=O)N[C@@H](CO)C(=O)N[C@@H](C)C(=O)N[C@@H](C)C(N)=O)NC(=O)[C@H](CC2CCC2)NC(=O)[C@H](CC(C)C)NC(=O)[C@H](CCC(N)=O)NC(=O)[C@H](Cc2c[nH]c3ccccc23)NC(=O)[C@H](Cc2ccc(O)cc2)NC(=O)[C@@H](CCC(=O)O)NC1=O)[C@@H](C)O` [E5(D-Glu)], for which the Kd in series [1] (Table 1) worked out at 32 nM. In addition, the “Helicity (%)” value in series [2] (Table 1) is listed as 38.2%. Also, the EC50 in series [3] (Table 1) was 1 µM.
For `CC(=O)N[C@@H](CC(C)C)C(=O)N[C@H](C(=O)N[C@@H](Cc1ccccc1)C(=O)N[C@]1(C)CCCCCCC=CCCC[C@@](C)(C(=O)N[C@H](CO)C(=O)N[C@@H](C)C(=O)N[C@@H](C)C(N)=O)NC(=O)[C@H](CC2CCC2)NC(=O)[C@H](CC(C)C)NC(=O)[C@H](CCC(N)=O)NC(=O)[C@H](Cc2c[nH]c3ccccc23)NC(=O)[C@H](Cc2ccc(O)cc2)NC(=O)[C@H](CCC(=O)O)NC1=O)[C@@H](C)O` [S12(D-Ser)] the same measures were 8.6 nM, 41.2% and 1.2 µM.
For `CC(=O)N[C@@H](CC(C)C)C(=O)N[C@H](C(=O)N[C@@H](Cc1ccccc1)C(=O)N[C@]1(C)CCCCCCC=CCCC[C@@](C)(C(=O)N[C@@H](CO)C(=O)N[C@@H](C)C(=O)N[C@@H](C)C(N)=O)NC(=O)[C@H](CC2CCC2)NC(=O)[C@H](CC(C)C)NC(=O)[C@H](CCC(N)=O)NC(=O)[C@H](Cc2c[nH]c3ccccc23)NC(=O)[C@@H](Cc2ccc(O)cc2)NC(=O)[C@H](CCC(=O)O)NC1=O)[C@@H](C)O` [Y6 (D-Tyr)] the same measures were 286 nM, 43.2% and 3.2 µM.
